Converted amounts (≈) assume the structure as drawn. Peptide text beside a SMILES is read from it. * marks the point of attachment. NHPhenethyl = c1ccc(CCN*)cc1
Experiments:
[1] = tested on: trypsin; assay: in vitro; format: in vitro ADME; details: pH 8.6
Protocol: Measurements and Calculation of Peptide Half-Life
Each peptide was dissolved in a 0.1 M NH4HCO3 buffer (pH 6.5) to yield a final peptide concentration of 1 mg/ml. A trypsin solution was prepared by dissolving 1 mg of trypsin in 50 ml 0.1 M NH4HCO3 buffer (pH 8.2). For the stability determination, 250 μl freshly made trypsin solution and 250 μl peptide solution were incubated in 2 ml of 0.1 M NH4HCO3 buffer (pH 8.6) at 37° C. on a rocking table. Aliquots of 0.5 ml were sampled at different time intervals, diluted with 0.5 ml water:acetonitrile (60:40 v/v) containing 1% TFA and analysed by RP-HPLC as described above. Samples without trypsin addition taken at 0 h and after 20 h at 37° C. were used as negative controls. Integration of the peak area at 254 nm for samples taken during the first 5 hours of the assay was used to generate the τ1/2.

[2] = tested on: E. coli; assay: Minimal inhibitory concentration (Example 6); format: cell-based
[3] = tested on: S. aureus; assay: Minimal inhibitory concentration (Example 6); format: cell-based
[4] = tested on: MRSA; assay: Minimal inhibitory concentration (Example 6); format: cell-based
[5] = tested on: Str. pyogenes; assay: Minimal inhibitory concentration (Example 6); format: cell-based

In the case of `N=C(N)NCCC[C@H](NC(=O)[C@H](Cc1ccc(-c2cccc3ccccc23)cc1)NC(=O)[C@@H](N)CCCNC(=N)N)C(=O)NCCc1ccccc1` [Compound 3], the half-life at 0.1 mg/ml ([1]; isolated enzyme trypsin) is reported as 20 h.
With `N=C(N)NCCC[C@H](NC(=O)[C@H](Cc1ccc(-c2ccc(-c3ccccc3)cc2)cc1)NC(=O)[C@@H](N)CCCNC(=N)N)C(=O)NCCc1ccccc1` [Compound 5] the half-life at 0.1 mg/ml [1] was > 24 h.
`N=C(N)NCCC[C@H](NC(=O)[C@H](Cc1c[nH]c2ccccc12)NC(=O)[C@@H](N)CCCNC(=N)N)C(=O)NCCc1ccccc1` [Compound 6, reference compound] (H-Arg-Trp-Arg-NHPhenethyl) showed a half-life at 0.1 mg/ml ([1]; isolated enzyme trypsin) of 7 h.
With `CC(C)(C)c1cc(C(C)(C)C)c2[nH]c(C(C)(C)C)c(C[C@H](NC(=O)[C@@H](N)CCCNC(=N)N)C(=O)N[C@@H](CCCNC(=N)N)C(=O)NCCc3ccccc3Br)c2c1` [—(CH2)2—(2-BrPh), H-Arg-Tbt-Arg-NH(CH)2(2-Br-phenyl)] the “Minimal inhibitory concentration E. coli” value [2] was 6 µg/mL (≈ 6.92 µM), the “Minimal inhibitory concentration S. aureus” value [3] was 3 µg/mL (≈ 3.46 µM) and the “Minimal inhibitory concentration MRSA” value [4] was 3 µg/mL (≈ 3.46 µM). For the same compound, the “Minimal inhibitory concentration Str. pyogenes” value [5] was 3 µg/mL (≈ 3.46 µM).
